Results on 1 compound are retold here after patent US10576147B2, “Muramyl peptide derivative compound, synthesis and uses thereof” (BHARAT BIOTECH INTERNATIONAL LIMITED, priority 2015, dated 2020).

By IC50 is commonly meant the concentration at which inhibition is half-maximal. One may read the EC50 as the concentration that produces a half-maximal response.

In brackets after ≈: the same amount, converted by molar mass.

One assay has as its system J774.2A cells. The assay can be described thus: Cytotoxicity assay (MTT). It is filed as cell-based. The conditions noted are these: 24 hrs, read-out: IC50 (50% cell death or toxicity). The protocol: Details of an assay are as explained in example 2.2.
J774.2A cells (2×10^4/well) were plated and incubated overnight. Next day, cells were treated with various concentrations of MDP-MN (10 fold dilutions with a concentration ranging from 0.005 mg/ml to 0.5 mg/ml & 2 mg/ml) and cultured for 24 hrs. Supernatant was discarded and cells were treated with 100 μl of MTT [3-(4,5-Dimethylthiazol-2-yl)-2,5-Diphenyltetrazolium Bromide] (5 mg/ml) and incubated for 3-4 hrs until formozan crystals were formed. Later, supernatant was discarded and crystals were dissolved with DMSO for 5-10 min. Absorbance was read at 540 nm. FIG. 2 represents cell toxicity effect of MDP-MN. X-axis represents concentration in log scale and Y-axis represents % toxicity.

Another assay has as its target T1, human NOD2 (Homo sapiens, UniProt Q9HC29).
T1 construct: host or cells: HEK 293 (HEK-Blue Human NOD2 reporter cells)
The assay can be described thus: NOD2 specific reporter assay (SEAP). It is filed as cell-based. The protocol:
Muramyl dipeptide molecules have the ability to bind to NOD2 receptors that are present on […] the immune cells, so as to stimulate immune response. NOD2 (Nucleotide oligomerization domain) receptor is an intracellular pattern recognition receptor (PRRs) recognizes muramyl dipeptide derivatives and stimulates cascade of signalling pathways to induce immune response. […] These cells were prepared by co-transfection of human NOD2 gene and codon-optimized SEAP (secreted embryonic alkaline phosphatase) reporter gene into HEK 293 cells. Upon stimulation of cells with muramyl dipeptide derivative, NFkB gets activated, which intum secrets SEAP and it was measured in cell supernatant. Experimental details of this in-vitro assay are given as example 2.1.
HEK—Blue Human NOD2 reporter cells (5×10^4/well) were plated and cultured overnight in a humidified CO2 incubator at 37° C. […] Supernatant was collected and treated with Quanti blue detection reagent at 37° C. for 15-30 min. Absorbance was read at 630 nm. Dose response curve generated by plotting concentration of adjuvant on X-axis and % response on the Y-axis is as shown in FIG. 1. To generate dose response curve, highest absorbance shown at tested concentration was taken as 100% response and the least absorbance was taken as 0% response. Effective concentration at 50% (EC50) response was determined from the dose response curve.
In general terms: In a reporter assay the amount or activity of a reporter protein is the signal.

The next assay deals with splenocytes. The assay can be described thus: Splenocyte proliferation (MTT). It is filed as cell-based, mice. The conditions noted are these: mouse splenocytes, LPS and Con-A, 48 h. The protocol: Spleens were isolated from mice and were processed to single cell suspension. 96 well flat bottom Micro titer plates were seeded with 1×10^5 cells/well with RPMI1640 media. Cells were treated with compounds, OVA, Con A (2 μg/mL) and LPS (10 μg/mL) or medium giving a final volume of […]. Plates were incubated at 37° C. with 5% CO2 in an incubator. After 48 h of incubation […] of Triazolyl blue Tetrazolium Bromide (MTT) solution was added to each well, incubated for next 4 h. Untransformed MTT was removed from each well by aspirating the supernatant ([…]) and replaced with DMSO. The absorbance was read at 570 nm after 15 min.
Immunostimulating substances act through specific (antigen-dependent) T lymphocytes, B lymphocytes, and dendritic cells and also through non-specific mechanisms of action (antigen-independent) that involves granulocytes, macrophages, and NK cells. Being a secondary lymphoid organ, spleen contains a heterogeneous population of lymphocytes to examine the immunostimulant activity. However, proliferations of immune cells like T and B cells are the benchmark for immune potentiation. Cells were treated with or without OVA or in combination with MDP and MDP-MN. Type of immune response in all treated groups was measured with LPS and Con-A splenocyte proliferation assays depicted in FIG. 3. […] This is essential for B cell expansion.

T1 sequence (Q9HC29 whole entry): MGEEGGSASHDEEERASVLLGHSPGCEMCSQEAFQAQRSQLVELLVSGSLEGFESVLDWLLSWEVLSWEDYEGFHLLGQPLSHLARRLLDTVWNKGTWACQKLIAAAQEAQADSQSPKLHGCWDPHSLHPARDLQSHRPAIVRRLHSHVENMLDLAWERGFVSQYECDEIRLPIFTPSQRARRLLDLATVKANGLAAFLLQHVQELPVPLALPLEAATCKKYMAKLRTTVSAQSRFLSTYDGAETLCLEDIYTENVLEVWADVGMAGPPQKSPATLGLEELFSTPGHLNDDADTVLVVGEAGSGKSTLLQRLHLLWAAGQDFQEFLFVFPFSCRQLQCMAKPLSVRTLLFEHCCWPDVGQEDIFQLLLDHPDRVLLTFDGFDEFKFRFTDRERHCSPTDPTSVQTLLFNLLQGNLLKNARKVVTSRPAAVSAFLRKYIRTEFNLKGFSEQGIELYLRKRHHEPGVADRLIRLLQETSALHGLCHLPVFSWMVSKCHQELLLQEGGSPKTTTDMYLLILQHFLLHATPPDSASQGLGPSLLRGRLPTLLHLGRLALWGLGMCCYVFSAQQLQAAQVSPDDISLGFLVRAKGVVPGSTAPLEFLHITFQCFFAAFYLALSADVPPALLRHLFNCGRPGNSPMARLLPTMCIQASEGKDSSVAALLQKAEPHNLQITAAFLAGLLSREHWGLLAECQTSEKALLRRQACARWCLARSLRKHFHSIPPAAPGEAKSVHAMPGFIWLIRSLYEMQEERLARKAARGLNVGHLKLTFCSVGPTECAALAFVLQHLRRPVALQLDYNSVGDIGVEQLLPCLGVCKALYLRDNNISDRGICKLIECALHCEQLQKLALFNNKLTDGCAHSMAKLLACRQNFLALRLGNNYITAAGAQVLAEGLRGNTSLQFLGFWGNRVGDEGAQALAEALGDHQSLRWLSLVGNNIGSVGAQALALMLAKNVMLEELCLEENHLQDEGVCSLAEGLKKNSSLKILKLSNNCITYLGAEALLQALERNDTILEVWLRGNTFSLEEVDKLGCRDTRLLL

`C[C@H](NC(=O)[C@@H](C)O[C@H]1[C@H](O)[C@@H](CO)OC(O)[C@@H]1NC(=O)[C@H](O)CO)C(=O)N[C@H](CCC(=O)O)C(N)=O` (stereo partly drawn) [MDP-MN, (4R)-5-amino-4-((2S)-2-((2R)-2-(((3R,4R,5S,6R)-3-((2,3-dihydroxypropanamido))-2,5-dihydroxy-6-(hydroxymethyl)tetrahydro-2H-pyran-4-yl)oxy)propanamido)propanamido)-5-oxopentanoic acid]: the IC50 in the assay on J774.2A cells came out at 99.2 µg/mL (≈ 184 µM). Moreover, the EC50 on human NOD2 (HEK-Blue Human NOD2 reporter cells, SEAP absorbance 630 nm, 24-72 hrs, read-out: EC50 (half maximal response) (converted)) was 2490 nM. Also, the “% response” value at human NOD2 (at 0.01 μg/ml, normalized to least absorbance) is on record as 0%; at human NOD2 (at 10 μg/ml (plateau), normalized to highest absorbance), 100%. Further, the splenocyte proliferation result with splenocytes is on record as “inducing the LPS mediated splenocyte proliferation”.
